The values below come from patent US10570179B2, “Substituted urea depsipeptide analogs as activators of the CLPP endopeptidase” (priority 2016, dated 2020).

Numbered stars: 1 amine (or outer) side, 2 acyl side, 3 side chain; on linkers, the order of the positions; unused ones are H or OH. Bridge positions count the residues as written; N and C are the ends. Square brackets hold non-standard residues; d marks the D form. Peptide text beside a SMILES is read from it. * marks the point of attachment. Piperazine(2S-CO,4-Me) = CN1CCN[C@H](C(=O)O)C1; Phe(3,5-F2) = N[C@@H](Cc1cc(F)cc(F)c1)C(=O)O; NH(1-Me-indolin-5-yl) = CN1CCc2cc(N*)ccc21; X6 = O=C([C@@H]1CS(=O)(=O)CCN1[*:1])[*:2]; Morpholine(3S-CO) = O=C(O)[C@@H]1COCCN1; Phe(3-Me) = Cc1cccc(C[C@H](N)C(=O)O)c1; NH(4-Cl-2-F-phenyl) = Fc1cc(Cl)ccc1N*; Pro(4R-Me) = C[C@H]1CN[C@H](C(=O)O)C1; X1 = O=C([C@@H]1CSCCN1[*:1])[*:2]; Hyp = O=C(O)[C@@H]1C[C@@H](O)CN1; NH(4-Me-phenyl) = Cc1ccc(N*)cc1; aThr = C[C@H](O)[C@H](N)C(=O)O; Pip = O=C(O)[C@@H]1CCCCN1; 4Abz = Nc1ccc(C(=O)O)cc1; CO = O=C([*:1])[*:2]; X2 = Fc1cc(N*)ccc1Cl

In one data set the test system is S. aureus ΔClpP. The data set can be described thus: Minimal inhibitory concentration, microbroth dilution. To be noted: MIC; ClpP inactivated. The data set is classed as cell-based, Staphylococcus aureus. In outline: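 MIC is recorded by eye as the lowest drug concentration that stops bacterial growth. Compound is serially diluted twofold in broth, starting at 200 μM final, and bacteria are added at roughly 10^5 cfu/mL. Incubation runs overnight at 37 °C under aerobic conditions, per CLSI guidance.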

The nature of data set [1]: Plasma protein binding, rapid equilibrium dialysis. The class given is in vitro ADME, human. To be noted: 10 μM. How it is done: This assay determines plasma protein binding of a drug/compound and free drug concentration in plasma using rapid equilibrium dialysis, which allow the aqueous component of plasma containing the free drug/compound through a dialysis membrane (MWCO˜8,000).
Solutions were prepared at 10 mM in DMSO. Dulbecco's phosphate buffered saline (DPBS; pH 7.4) was obtained from Invitrogen (Carlsbad, Calif.). Single-Use RED (rapid equilibrium dialysis) device was obtained from Thermo scientific (Rockford, Ill.). Human plasma was obtained from Innovative Research INC (Novi, Michigan, Ill).
Sample preparation for plasma protein binding was modified from Waters' method. (Waters et al. (2008) J. Pharm. Sci. 97(10): 4586-95). The Teflon base plate with the RED inserts (MWCO 8 K) were allowed to use without any pre-condition the membrane inserts. Human plasma was thawed and centrifuged at 1000 rpm for 2 min to remove any particulates. Each compound was prepared at 10 μM in human plasma. This was done by adding 1 μL, of drug solution (10 mM in DMSO) to 1000 μL, of human plasma (0.1% DMSO). Spiked plasma solutions (300 μL) were placed into the sample chamber (indicated by the red ring) and 500 μL, of DPBS into the adjacent chamber. The plate was sealed and incubated at 37° C. on an orbital shaker (100 rpm) for 4 hours. After incubation, the seal was removed from the RED plate and the volume of the insert confirmed—little to no volume change occurred. Aliquots (50 μL) were removed from each side of the insert and dispensed into a 96-well deep plate. An equal volume of blank plasma or DPBS was added to the required wells to create analytically identical sample matrices (matrix matching). To each sample 200 μL, of ACN containing 4 μg/mL warfarin IS was added. All of the plates were sealed and mixed well at 600 rpm for 10 min and were centrifuged at 4000 rpm for 20 min. The supernatants (120 μL) were transferred to analytical plates for analysis by LCMS. Conditions for Waters ACQUITY-UPLC-MS-UV system were described separately. The test compound concentrations were quantified in both buffer and plasma chambers via peak areas relative to the internal standard. The percentage of the test compound bound to plasma was calculated on following equations: % Free=(Concentration buffer chamber/concentration plasma chamber)×100% and % Bound=100%-% Free.

[2] abbreviates: plasma binding, % Bound, human plasma.

`Cc1ccc(NC(=O)N[C@@H](Cc2cccc(C)c2)C(=O)N[C@H]2COC(=O)[C@@H]3C[C@H](C)CN3C(=O)[C@H](C)NC(=O)[C@@H]3CCCCN3C(=O)[C@@H]3CCCN3C2=O)cc1` (stereo in doubt) [Compound 43, (S)—N-((2S,6S,8AS,14AS,20S,23AS)-2,6-DIMETHYL-5,8,14,19,23-PENTAOXOOCTADECAHYDRO-1H,5H,14H,19H-PYRIDO[2,1-I]DIPYRROLO[2,1-C:2′,1′-L][1]OXA[4,7,10,13]TETRAAZACYCLOHEXADECIN-20-YL)-3-(M-TOLYL)-2-(3-(P-TOLYL)UREIDO)PROPANAMIDE]: in the data set with S. aureus ΔClpP, the “Minimal Inhibitory Concentrations (μM) S. aureus ΔClpP” value was over 20 µM. The Human in data set [1] (setting [2]) is listed as 72.9 ± 1.4%.
Consider `C[C@@H]1C[C@H]2C(=O)O[C@@H](C)[C@H](NC(=O)[C@H](Cc3cc(F)cc(F)c3)NC(=O)Nc3ccc4c(c3)CCN4C)C(=O)N3CCC[C@H]3C(=O)N3CCOC[C@H]3C(=O)N[C@@H](C)C(=O)N2C1` [Compound 32] ({NH(1-Me-indolin-5-yl)-CO}-[Phe(3,5-F2)][aThr]P[Morpholine(3S-CO)]A[Pro(4R-Me)]; ester 2-C), for which the “Minimal Inhibitory Concentrations (μM) S. aureus ΔClpP” value with S. aureus ΔClpP was over 20 µM. The same compound showed a Human in data set [1] (setting [2]) of 83.0 ± 3.0%.
In the case of `C[C@@H]1C[C@H]2C(=O)OC[C@H](NC(=O)[C@H](Cc3cc(F)cc(F)c3)NC(=O)Nc3ccc(Cl)cc3F)C(=O)N3CCC[C@H]3C(=O)N3CCN(C)C[C@H]3C(=O)N[C@@H](C)C(=O)N2C1` [Compound 34] ({NH(4-Cl-2-F-phenyl)-CO}-[Phe(3,5-F2)]SP[Piperazine(2S-CO,4-Me)]A[Pro(4R-Me)]; ester 2-C), the “Minimal Inhibitory Concentrations (μM) S. aureus ΔClpP” value in the data set with S. aureus ΔClpP was over 20 µM. The same compound had a Human in data set [1] (human, 4 h, pH 7.4) of 96.5 ± 6.5%.
For `Cc1cccc(C[C@H](NC(=O)Nc2ccc(Cl)c(F)c2)C(=O)N[C@@H]2C(=O)N3CCC[C@H]3C(=O)N3CCCC[C@H]3C(=O)N[C@@H](C)C(=O)N3C[C@H](C)C[C@H]3C(=O)O[C@H]2C)c1` [Compound 35, (S)-2-(3-(4-CHLORO-3-FLUOROPHENYL)UREIDO)-3-(M-TOLYL)-N-((2R,6S,8AS,14AS,20S,21S,23AS)-2,6,21-TRIMETHYL-5,8,14,19,23-PENTAOXOOCTADECAHYDRO-1H,5H,14H,19H-PYRIDO[2,1-I]DIPYRROLO[2,1-C:2′,1′-L][1]OXA[4,7,10,13]TETRAAZACYCLOHEXADECIN-20-YL)PROPANAMIDE] ({X2-CO}-[Phe(3-Me)][aThr]P[Pip]A[Pro(4R-Me)]; ester 2-C), the “Minimal Inhibitory Concentrations (μM) S. aureus ΔClpP” value in the data set on S. aureus ΔClpP is over 20 µM. In data set [1] (human, 4 h, pH 7.4), this compound had a Human of 99.9 ± 9.9%.
Regarding `CCOC(=O)c1ccc(NC(=O)N[C@@H](Cc2cccc(C)c2)C(=O)N[C@@H]2C(=O)N3C[C@H](O)C[C@H]3C(=O)N3CCCC[C@H]3C(=O)N[C@@H](C)C(=O)N3C[C@H](C)C[C@H]3C(=O)O[C@H]2C)cc1` [Compound 36, ETHYL 4-(3-((S)-1-(((2R,6S,8AS,14AS,16R,20S,21S,23AS)-16-HYDROXY-2,6,21-TRIMETHYL-5,8,14,19,23-PENTAOXOOCTADECAHYDRO-1H,5H,14H,19H-PYRIDO[2,1-I]DIPYRROLO[2,1-C:2′,1′-L][1]OXA[4,7,10,13]TETRAAZACYCLOHEXADECIN-20-YL)AMINO)-1-OXO-3-(M-TOLYL)PROPAN-2-YL)UREIDO)BENZOATE] ({OEt-4Abz-CO}-[Phe(3-Me)][aThr][Hyp][Pip]A[Pro(4R-Me)]; ester 2-C), the “Minimal Inhibitory Concentrations (μM) S. aureus ΔClpP” value in the data set with S. aureus ΔClpP was over 20 µM. The same compound registered a Human in data set [1] (setting [2]) of 98.3 ± 8.3%.
For the compound `Cc1cccc(C[C@H](NC(=O)Nc2ccc(Cl)cc2F)C(=O)N[C@@H]2C(=O)N3CCC[C@H]3C(=O)N3CCSC[C@H]3C(=O)N[C@@H](C)C(=O)N3C[C@H](C)C[C@H]3C(=O)O[C@H]2C)c1` [Compound 38, (S)-2-(3-(4-CHLORO-2-FLUOROPHENYL)UREIDO)-3-(M-TOLYL)-N-((6AS,12S,13S,15AS,17R,21S,23AR)-13,17,21-TRIMETHYL-6,11,15,20,23-PENTAOXOOCTADECAHYDRO-6H,11H,15H-DIPYRROLO[2,1-C:2′,1′-L][1,4]THIAZINO[3,4-I][1]OXA[4,7,10,13]TETRAAZACYCLOHEXADECIN-12-YL)PROPANAMIDE] ({NH(4-Cl-2-F-phenyl)-CO}-[Phe(3-Me)][aThr]P[X1]A[Pro(4R-Me)]; ester 2-C), the “Minimal Inhibitory Concentrations (μM) S. aureus ΔClpP” value in the data set with S. aureus ΔClpP is over 20 µM. In data set [1] (human, 4 h, pH 7.4), this compound had a Human of 99.5 ± 9.5%.
In the case of `Cc1cccc(C[C@H](NC(=O)Nc2ccc(Cl)cc2F)C(=O)N[C@@H]2C(=O)N3CCC[C@H]3C(=O)N3CCS(=O)(=O)C[C@H]3C(=O)N[C@@H](C)C(=O)N3C[C@H](C)C[C@H]3C(=O)O[C@H]2C)c1` [Compound 40, (S)-2-(3-(4-CHLORO-2-FLUOROPHENYL)UREIDO)-3-(M-TOLYL)-N-((6AS,12S,13S,15AS,17R,21S,23AR)-13,17,21-TRIMETHYL-2,2-DIOXIDO-6,11,15,20,23-PENTAOXOOCTADECAHYDRO-6H,11H,15H-DIPYRROLO[2,1-C:2′,1′-L][1,4]THIAZINO[3,4-I][1]OXA[4,7,10,13]TETRAAZACYCLOHEXADECIN-12-YL)PROPANAMIDE] ({NH(4-Cl-2-F-phenyl)-CO}-[Phe(3-Me)][aThr]P[X6]A[Pro(4R-Me)]; ester 2-C), the “Minimal Inhibitory Concentrations (μM) S. aureus ΔClpP” value with S. aureus ΔClpP was over 20 µM. The Human in data set [1] (human, 4 h, pH 7.4) was 98.5 ± 8.5%.
In the case of `Cc1cccc(C[C@H](NC(=O)Nc2ccc(Cl)cc2F)C(=O)N[C@@H]2C(=O)N3C[C@H](O)C[C@H]3C(=O)N3CCSC[C@H]3C(=O)N[C@@H](C)C(=O)N3C[C@H](C)C[C@H]3C(=O)O[C@H]2C)c1` [Compound 41, (S)-2-(3-(4-CHLORO-2-FLUOROPHENYL)UREIDO)-N-((6AS,8R,12S,13S,15AS,17R,21S,23AR)-8-HYDROXY-13,17,21-TRIMETHYL-6,11,15,20,23-PENTAOXOOCTADECAHYDRO-6H,11H,15H-DIPYRROLO[2,1-C:2′,1′-L][1,4]THIAZINO[3,4-I][1]OXA[4,7,10,13]TETRAAZACYCLOHEXADECIN-12-YL)-3-(M-TOLYL)PROPANAMIDE] ({NH(4-Cl-2-F-phenyl)-CO}-[Phe(3-Me)][aThr][Hyp][X1]A[Pro(4R-Me)]; ester 2-C), the “Minimal Inhibitory Concentrations (μM) S. aureus ΔClpP” value in the data set with S. aureus ΔClpP was over 20 µM. The compound also had a Human in data set [1] (human, 4 h, pH 7.4) of 99.7 ± 9.7%.
On to `Cc1ccc(NC(=O)N[C@@H](Cc2cccc(C)c2)C(=O)N[C@@H]2C(=O)N3C[C@H](O)C[C@H]3C(=O)N3CCSC[C@H]3C(=O)N[C@@H](C)C(=O)N3C[C@H](C)C[C@H]3C(=O)O[C@H]2C)cc1` [Compound 42, (S)—N-((6AS,8R,12S,13S,15AS,17R,21S,23AR)-8-HYDROXY-13,17,21-TRIMETHYL-6,11,15,20,23-PENTAOXOOCTADECAHYDRO-6H,11H,15H-DIPYRROLO[2,1-C:2′,1′-L][1,4]THIAZINO[3,4-I][1]OXA[4,7,10,13]TETRAAZACYCLOHEXADECIN-12-YL)-3-(M-TOLYL)-2-(3-(P-TOLYL)UREIDO)PROPANAMIDE] ({NH(4-Me-phenyl)-CO}-[Phe(3-Me)][aThr][Hyp][X1]A[Pro(4R-Me)]; ester 2-C), for which, in the data set on S. aureus ΔClpP, the “Minimal Inhibitory Concentrations (μM) S. aureus ΔClpP” value is over 20 µM. The compound further had a Human in data set [1] (setting [2]) of 98.1 ± 8.1%.
